PMC6385020 (Molecules, 2019)
“And” between values parts separate entries of the source, which are not always exact repeats. Identical values can stand only once.

What was measured:
[1] = tested on: A2780cis cisplatin-resistant ovarian cancer cell line; assay: Cell growth (proliferation), 96 h treatment; assay type: cell-based, human; conditions: 96 h treatment; for IC50: A2780cis
Description: (§1) The ovarian carcinoma cell lines and human normal lung cells were purchased from ATCC and were grown in complete RPMI medium (ovarian) and DMEM (human lung cells) supplemented with 10% fetal calf serum, in the presence of penicillin, streptomycin. The resistance of A2780cis cells to cisplatin was maintained by monthly treatment with 1 µM cisplatin for 4 days. Concentrated stock solutions of complexes were conserved at −20 °C (DMSO/Water) and freshly diluted in water just before the experiments. Cells were treated with various concentrations of platinum complexes at 37 °C under humidity and 5% CO2 conditions for 96 h. Cellular growth was quantified using the particle counter MOXI (VWR).

[2] = tested on: CCD19Lu normal lung cell line; assay: Cell growth (proliferation), 96 h treatment; assay type: cell-based, human
Description: as §1

[3] = tested on: A2780 ovarian cancer cell line; assay: Cell growth (proliferation), 96 h treatment; assay type: cell-based, human; conditions: A2780, 96 h treatment
Description: as §1

[4] = tested on: 22AG (DNA, G4) AGGGTTAGGGTTAGGGTTAGGG; assay: G4-FID, thiazole orange displacement; conditions: 100 mM KCl; 10 mM lithium cacodylate pH 7.3, 1% DMSO; thiazole orange displaced; 1 µM compound, 0.25 µM DNA
[5] = tested on: CEB25-WT minisatellite sequence G4; assay: TO G4-FID assay; assay type: binding; conditions: TO 2 eq, K+100 buffer
Description: (§2) For the G4-FID assay, the oligonucleotides were dissolved in K^+100 buffer (10 mM lithium cacodylate buffer pH 7.3, 100 mM KCl, 1% DMSO). Oligonucleotide concentrations were determined on the basis of their absorbance at 260 nm. For the fluorimetric titration, the oligonucleotides were dissolved in K^+100 buffer without DMSO. For the FRET-melting assay, the oligonucleotides were dissolved in K^+1 buffer (10 mM lithium cacodylate buffer pH 7.3, 1 mM KCl, 99 mM LiCl) except for F-21-T. F-21-T was dissolved in K^+10 buffer (10 mM lithium cacodylate buffer pH 7.3, 10 mM KCl, 90 mM LiCl).
(§3) Prior to use, all oligonucleotides were pretreated by heating at 95 °C for 5 min, then rapidly cooled to 4 °C to favor the intramolecular folding by kinetic trapping. Duplex-DNA ds26 was prepared by heating the self-complementary strand at 90 °C for 5 min in K^+1 buffer followed by a slow cooling over 6 h.
(§4) Each G4-FID assay was performed in a 96-well Non-Binding Surface black with black bottom polystyrene microplates (Corning). Every ligand was tested on a line of the microplate, in duplicate. The microplate was filled with (a) K^+100 solution (qs for 200 μL), (b) 10 μL of a solution of pre-folded oligonucleotides (5 μM) and fluorescent probe (TO/TO-PRO-3 (10 μM—2 eq) or PhenDV (7,5 µM—1.5 eq)), and (c) an extemporaneously prepared 5 μM ligand solution in K^+100 buffer (0 to 100 μL) along the line of the microplate, i.e., from column A to column H: 0, 0.125, 0.25, 0.375, 0.5, 0.625, 0.75, 1.0, 1.25, 1.5, 2.0, and 2.5 μM. After 5 min of orbital shaking at 500 rpm, fluorescence is measured using the following experimental parameters: positioning delay of 0.5 s, 20 flashes per well, emission/excitation filters for TO at 485/520, TO-PRO-3 at 620/670, and PhenDV at 355/520 gain adjusted at 80% of the fluorescence from the most fluorescent well (i.e., a well from column A for TO and a well from column H).
(§5) The percentage of TO displacement is calculated from the fluorescence intensity (F), using (1) % TO displacement=1−F/F0 where F0 is the fluorescence from the fluorescent probe bound to DNA without added ligand.
(§6) The PhenDV displacement is calculated from the fluorescence intensity F; F(ligand+probe), which refers to the fluorescence of the probe in presence of the ligand (without G4); and F0, which is the fluorescence without added ligand. The term F(ligand+probe) is necessary as the ligand can quench the fluorescence of the probe. The percentage of displacement is then plotted as a function of the concentration of the added ligand. The DNA affinity was evaluated by the concentration of ligand required to decrease the fluorescence of the probe by 50%, was noted DC50, and was determined after non-linear fitting of the displacement curve.

c-myc G4 = assay: TO G4-FID assay; assay type: binding; conditions: TO 2 eq, K+100 buffer
Description: as §2, §3, §4, §5, §6

[6] = tested on: 21CTA (DNA, G4) AGGGCTAGGGCTAGGGCTAGGG; assay: G4-FID, thiazole orange displacement; conditions: 100 mM KCl; 10 mM lithium cacodylate pH 7.3, 1% DMSO; thiazole orange displaced; 1 µM compound, 0.25 µM DNA
duplex ds26 DNA = assay: TO G4-FID assay; assay type: binding; conditions: ds26, K+100 buffer
Description: as §2, §3
Each G4-FID assay was performed in a 96-well Non-Binding Surface black with black bottom polystyrene microplates (Corning). Every ligand was tested on a line of the microplate, in duplicate. […] After 5 min of orbital shaking at 500 rpm, fluorescence is measured using the following experimental parameters: positioning delay of 0.5 s, 20 flashes per well, emission/excitation filters for TO at 485/520, TO-PRO-3 at 620/670, and PhenDV at 355/520 gain adjusted at 80% of the fluorescence from the most fluorescent well (i.e., a well from column A for TO and a well from column H).
as §5
The PhenDV displacement is calculated from the fluorescence intensity F; F(ligand+probe), which refers to the fluorescence of the probe in presence of the ligand (without G4); and F0, which is the fluorescence without added ligand. The term F(ligand+probe) is necessary as the ligand can quench the fluorescence of the probe. […]

[7] = tested on: G4-DNA structures (F-21-T, F-myc-T, F-21CTA-T, F-CEB25-WT-T); assay: FRET-melting assay (ligand-induced stabilization); assay type: binding, human; conditions: 1 µM ligand, 0.2 µM DNA, all G4-DNA structures, K+1 or K+10 buffer
Description: as §2, §3
The stabilization of the compounds with a quadruplex-structure was monitored via FRET-melting assay performed in 96-well plates on a real-time PCR apparatus 7900HT Fast Real-Time PCR System as follows: 5 min at 25 °C and then an increase of 0.5 °C every minute until 95 °C. Each experimental condition was tested and replicated in a volume of 25 μL for each sample. The FRET-melting assay was performed with three dual fluorescently labeled DNA oligonucleotide sequences oligonucleotides. The donor fluorophore was 6-carboxyfluorescein, FAM, and the acceptor fluorophore was 6-carboxytetramethylrhodamine, TAMRA. The 96-well plates (Applied Biosystems) were prepared by aliquoting the annealed DNA (0.2 μM in K^+1 or K^+10 buffer) into each well, followed by 1 μL of the ligand ([…] (5 eq) in DMSO). For competition experiments, duplex competitors were added to 200 nM quadruplex sequences at final concentrations of 3.0 μM (15 eq) and 10.0 μM (50 eq), with a total reaction volume of 25 μL, with the labeled oligonucleotide (0.2 μM) and the ligand (1 μM). Measurements were made with excitation at 492 nm and detection at 516 nm. The change in the melting temperature at 1.0 μm compound concentration, ΔTm (1.0 μM), was calculated from at least two experiments by subtraction of the blank from the averaged melting temperature of each compound (1.0 μM). The final analysis of the data was carried out using Origin Pro 8.6 data analysis.

SMILES: [Cl-].[Cl][Pt+].c1ccc(-c2cc(-c3ccc(OCCN4CCCC4)cc3)nc(-c3ccccn3)n2)nc1 [Pt-cpym, Chloro-(2,4-di(pyridin-2-yl)-6-(4-(2-(pyrrolidin-1-yl)ethoxy)phenyl)pyrimidine)-platinum(II) Chloride]
- Resistance Factor (IC50ratio A2780cis/A2780) [1]: 1.3
- IC50 [1]: 5000 nM
- IC50 [2]: 1800 nM
- IC50 [3]: 3800 nM
- % TO displacement [4]: < 60%
- % of TO displacement at 1 µM of ligand [5]: 43%
- % of TO displacement at 1 µM of ligand (c-myc G4): 33%
- % TO displacement [6]: < 60%
- % of TO displacement at 1 µM of ligand (duplex ds26 DNA): 2%
- ∆Tm (ligand-induced stabilization, FRET-melting) [7]: < 10 °C

SMILES: CN(C)CCCNCc1ccc(-c2cc(-c3ccccn3)nc(-c3ccccn3)c2)cc1.[Cl-].[Cl][Pt+] [Pt-ctpy]
- Resistance Factor (IC50ratio A2780cis/A2780) [1]: 1.1
- IC50 [1]: 5000 nM
- IC50 [2]: 5200 nM
- IC50 [3]: 4600 nM
- % TO displacement [4]: > 80%
- % of TO displacement at 1 µM of ligand [5]: 82%
- % of TO displacement at 1 µM of ligand (c-myc G4): 76%
- % TO displacement [6]: > 80%
- % of TO displacement at 1 µM of ligand (duplex ds26 DNA): < 20% and 17%
- ∆Tm (ligand-induced stabilization, FRET-melting) [7]: > 10 °C

SMILES: [Cl-].[Cl][Pt+].c1ccc(-c2cccc(-c3ccccn3)n2)nc1 [Pt-tpy]
- Resistance Factor (IC50ratio A2780cis/A2780) [1]: 1.6
- IC50 [1]: 5000 nM
- IC50 [2]: 3000 nM
- IC50 [3]: 3000 nM
- % of TO displacement at 1 µM of ligand [5]: 14%
- % of TO displacement at 1 µM of ligand (c-myc G4): 41%
- ∆Tm (ligand-induced stabilization, FRET-melting) [7]: < 10 °C

SMILES: Cc1ccc(-c2cc(-c3ccccn3)nc(-c3ccccn3)c2)cc1.[Cl-].[Cl][Pt+] [Pt-ttpy]
- Resistance Factor (IC50ratio A2780cis/A2780) [1]: 1.0
- IC50 [1]: 2500 nM
- IC50 [2]: 1750 nM
- IC50 [3]: 2500 nM
- % TO displacement [4]: > 80%
- % of TO displacement at 1 µM of ligand [5]: 66%
- % of TO displacement at 1 µM of ligand (c-myc G4): 64%
- % TO displacement [6]: > 80%
- % of TO displacement at 1 µM of ligand (duplex ds26 DNA): < 20%
- ∆Tm (ligand-induced stabilization, FRET-melting) [7]: > 10 °C

SMILES: CN(C)c1ccc(/C=C/c2cc(-c3ccccn3)nc(-c3ccccn3)n2)cc1.[Cl-].[Cl][Pt+] [Pt-vpym, Chloro-(E)-4-(2-(2,6-di(pyridin-2-yl)pyrimidin-4-yl)vinyl)-N,N-dimethylaniline-platinum(II) Chloride]
- Resistance Factor (IC50ratio A2780cis/A2780) [1]: 0.6
- IC50 [1]: 400 nM
- IC50 [2]: 700 nM
- IC50 [3]: 700 nM
- ∆Tm (ligand-induced stabilization, FRET-melting) [7]: < 10 °C
